# From patent US20230041563A1, “N-(1,3,4-OXADIAZOL-2-YL)ARYLCARBOXAMIDES OR SALTS THEREOF, PREPARATION METHODS, HERBICIDAL COMPOSITIONS AND USES THEREOF” (priority 2018, published 2023)
# Experiments:
# Setaria viridis = experiment: Weeding effect in post-emergence stage (greenhouse pot spray); format: in vivo
# How it was run: (§1)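 Post-emergence foliar spray on 2-3 leaf greenhouse pot plants at 15 to 500 g a.i./ha with methyl oleate emulsifiable concentrate (1.5 liter/ha) added; growth control by fresh weight after 3 weeks.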
# Digitaria sanguinalis = experiment: as above; format: in vivo
# How it was run: as §1
# Echinochloa crusgalli = experiment: as above; format: in vivo
# How it was run: as §1
# Echinochloa crusgali = experiment: Transplanted rice safety evaluation and weed control effect evaluation in rice field; format: in vivo
# Excerpt: (§2) Transplanted rice safety evaluation and weed control effect evaluation in rice field:
# (§3) Rice field soil was loaded into a 1/1,000,000 ha pot. The seeds of echinochloa crusgali, scirpus juncoides, Bidens tripartita, Sagittaria trifolia, Monochoria vaginalis and Leptochloa chinensis were sowed and gently covered with soil, then left to stand still in greenhouse in the state of 0.5-1 cm of water storage. The tuber of Sagittaria trifolia was planted in the next day or 2 days later. It was kept at 3-4 cm of water storage thereafter. The weeds were treated by dripping the WP or SC water diluents prepared according to the common preparation method of the compounds of the present invention with pipette homogeneously to achieve specified effective amount when echinochloa crusgali, scirpus juncoides, Bidens tripartita, Monochoria vaginalis and Leptochloa chinensis reached 0.5 leaf stage and Sagittaria trifolia reached the time point of primary leaf stage.
# (§4) The fertility condition of echinochloa crusgali, scirpus juncoides, Bidens tripartita, Leptochloa chinensis, Sagittaria trifolia and Monochoria vaginalis 14 days after the treatment of the compound of the invention and the fertility condition of rice 21 days after the treatment of the compound of the invention respectively with the naked eye. Evaluate the weed control effect with 0-5 activity standard level. Many compounds show excellent activity and selectivity.
# Monochoria vaginalis = experiment: as above; format: in vivo
# Excerpt: as §2, §3, §4
# Leptochloa chinensis = experiment: as above; format: in vivo; conditions: Table 8, dose 60 g a.i./ha
# Excerpt: as §2, §3, §4
# Sagittaria trifolia = experiment: as above; format: in vivo; conditions: Table 8, dose 60 g a.i./ha
# Excerpt: as §2, §3, §4
# Rice = experiment: as above; format: in vivo, rice (japonica rice/Indica rice)
# Method: as §2
# In addition, the rice field soil that loaded into the 1/1,000,000 ha pot was leveled to keep water storage at 3-4 cm depth. The 3 leaf stage rice (japonica rice/Indica rice) was transplanted at 3 cm of transplanting depth the next day. The compound of the present invention was treated by the same way after 5 days of transplantation.
# as §4
# Abutilon theophrasti = experiment: Weeding effect in post-emergence stage (greenhouse pot spray); format: in vivo
# How it was run: as §1
# [1] = tested on: Japonica rice (Huaidao No. 5); experiment: Safety test of control experiments on rice; format: in vivo; conditions: Dose 250 g a.i./ha
# Excerpt: (§5) The activity level criteria for plant damage (i.e., growth control rate) are as follows: Comparative Experiments: [table]
# [2] = tested on: Indica rice (Huanghuazhan); experiment: Safety test of control experiments on rice; format: in vivo; conditions: Dose 250 g a.i./ha
# Excerpt: as §5
# Stellaria media = experiment: Weeding effect in post-emergence stage (greenhouse pot spray); format: in vivo; conditions: Table 2, dose 125 g a.i./ha
# How it was run: as §1
# Amaranthus retroflexus = experiment: as above; format: in vivo; conditions: Table 2, dose 125 g a.i./ha
# How it was run: as §1
# Scirpus juncoides = experiment: Transplanted rice safety evaluation and weed control effect evaluation in rice field; format: in vivo; conditions: Table 7, dose 125 g a.i./ha, 14 days after treatment
# Excerpt: as §2, §3, §4
# [3] = tested on: rice and Echinochloa crusgali; experiment: Herbicide selection index between rice and Echinochloa crusgali; format: in vivo; conditions: average dose causing 10% phytotoxicity to rice divided by average dose causing 90% control efficiency to Echinochloa crusgali
# [4] = Table 7, dose 125 g a.i./ha, 14 days after treatment
smiles,measurement,setting,value
Cc1nnc(NC(=O)c2ccc(C(F)(F)F)c([S@@+]([O-])C3COC3)c2F)o1 [1-82 (R-configuration)],Setaria viridis (activity level),"Setaria viridis; Table 3, dose 125 g a.i./ha",5 (Level 5: growth control rate is above 85%)
same,Digitaria sanguinahs (activity level),"Digitaria sanguinalis; Table 3, dose 125 g a.i./ha",5 (Level 5: growth control rate is above 85%)
same,Echinochloa crusgali (activity level),"Echinochloa crusgalli; Table 3, dose 125 g a.i./ha",5 (Level 5: growth control rate is above 85%)
same,Echinochloa crusgali (activity level),"Echinochloa crusgali; Table 8, dose 60 g a.i./ha",5 (Level 5: growth control rate is above 85%)
same,Monochoria vaginalis (activity level),"Monochoria vaginalis; Table 8, dose 60 g a.i./ha",5 (Level 5: growth control rate is above 85%)
same,Leptochloa chinensis (activity level),Leptochloa chinensis,5 (Level 5: growth control rate is above 85%)
same,Sagittaria trifolia (activity level),Sagittaria trifolia,5 (Level 5: growth control rate is above 85%)
same,Rice (safety level),"Rice; Table 8, dose 60 g a.i./ha",0 (Level 0: growth control rate is less than 5%)
CCCC[S@+]([O-])c1c(C(F)(F)F)ccc(C(=O)Nc2nnc(C)o2)c1F [1-14 (R-configuration)],Setaria viridis (activity level),"Setaria viridis; Table 3, dose 7.5 g a.i./ha",4 (Level 4: growth control rate is greater than or equal to 60% and less than 85%)
same,Setaria viridis (activity level),"Setaria viridis; Table 3, dose 15 g a.i./ha",4 (Level 4: growth control rate is greater than or equal to 60% and less than 85%)
same,Setaria viridis (activity level),"Setaria viridis; Table 3, dose 30 g a.i./ha",5 (Level 5: growth control rate is above 85%)
same,Setaria viridis (activity level),"Setaria viridis; Table 3, dose 60 g a.i./ha",5 (Level 5: growth control rate is above 85%)
same,Digitaria sanguinahs (activity level),"Digitaria sanguinalis; Table 3, dose 7.5 g a.i./ha",4 (Level 4: growth control rate is greater than or equal to 60% and less than 85%)
same,Digitaria sanguinahs (activity level),"Digitaria sanguinalis; Table 3, dose 15 g a.i./ha",5 (Level 5: growth control rate is above 85%)
same,Digitaria sanguinahs (activity level),"Digitaria sanguinalis; Table 3, dose 30 g a.i./ha",5 (Level 5: growth control rate is above 85%)
same,Digitaria sanguinahs (activity level),"Digitaria sanguinalis; Table 3, dose 60 g a.i./ha",5 (Level 5: growth control rate is above 85%)
same,Echinochloa crusgali (activity level),"Echinochloa crusgalli; Table 3, dose 7.5 g a.i./ha",5 (Level 5: growth control rate is above 85%)
same,Echinochloa crusgali (activity level),"Echinochloa crusgalli; Table 3, dose 15 g a.i./ha",5 (Level 5: growth control rate is above 85%)
same,Echinochloa crusgali (activity level),"Echinochloa crusgalli; Table 3, dose 30 g a.i./ha",5 (Level 5: growth control rate is above 85%)
same,Echinochloa crusgali (activity level),"Echinochloa crusgalli; Table 3, dose 60 g a.i./ha",5 (Level 5: growth control rate is above 85%)
same,Echinochloa crusgali (activity level),"Echinochloa crusgali; Table 8, dose 60 g a.i./ha",5 (Level 5: growth control rate is above 85%)
same,Monochoria vaginalis (activity level),"Monochoria vaginalis; Table 8, dose 60 g a.i./ha",5 (Level 5: growth control rate is above 85%)
same,Leptochloa chinensis (activity level),Leptochloa chinensis,5 (Level 5: growth control rate is above 85%)
same,Sagittaria trifolia (activity level),Sagittaria trifolia,5 (Level 5: growth control rate is above 85%)
same,Rice (safety level),"Rice; Table 8, dose 60 g a.i./ha",0 (Level 0: growth control rate is less than 5%)
Cc1nnc(NC(=O)c2ccc(C(F)(F)F)c([S@@+]([O-])CCCF)c2F)o1 [1-403 (R-configuration)],Setaria viridis (activity level),"Setaria viridis; Table 3, dose 60 g a.i./ha",5 (Level 5: growth control rate is above 85%)
same,Digitaria sanguinahs (activity level),"Digitaria sanguinalis; Table 3, dose 60 g a.i./ha",5 (Level 5: growth control rate is above 85%)
same,Echinochloa crusgali (activity level),"Echinochloa crusgalli; Table 3, dose 60 g a.i./ha",5 (Level 5: growth control rate is above 85%)
same,Echinochloa crusgali (activity level),"Echinochloa crusgali; Table 8, dose 60 g a.i./ha",5 (Level 5: growth control rate is above 85%)
same,Monochoria vaginalis (activity level),"Monochoria vaginalis; Table 8, dose 60 g a.i./ha",5 (Level 5: growth control rate is above 85%)
same,Leptochloa chinensis (activity level),Leptochloa chinensis,5 (Level 5: growth control rate is above 85%)
same,Sagittaria trifolia (activity level),Sagittaria trifolia,5 (Level 5: growth control rate is above 85%)
same,Rice (safety level),"Rice; Table 8, dose 60 g a.i./ha",0 (Level 0: growth control rate is less than 5%)
CCCC[S+]([O-])c1c(C(F)(F)F)ccc(C(=O)Nc2nnc(C)o2)c1F (racemic) [Compound 1-14],Setaria viridis (activity level),"Setaria viridis; Table 3, dose 60 g a.i./ha",5 (Level 5: growth control rate is above 85%)
same,Abutilion theophrasti (activity level),"Abutilon theophrasti; Table 2, dose 125 g a.i./ha",5 (Level 5: growth control rate is above 85%)
same,Abutilon theophrasti (activity level),"Abutilon theophrasti; Table 3, dose 60 g a.i./ha",5 (Level 5: growth control rate is above 85%)
same,Digitaria sanguinalis (activity level),"Digitaria sanguinalis; Table 2, dose 125 g a.i./ha",5 (Level 5: growth control rate is above 85%)
same,Digitaria sanguinahs (activity level),"Digitaria sanguinalis; Table 3, dose 60 g a.i./ha",5 (Level 5: growth control rate is above 85%)
same,Echinochloa crusgah (activity level),"Echinochloa crusgalli; Table 2, dose 125 g a.i./ha",5 (Level 5: growth control rate is above 85%)
same,Japonica rice (Huaidao No. 5) (plant damage level),[1],0 (Level 0: growth control rate is less than 5%)
same,Indica rice (Huanghuazhan) (plant damage level),[2],0 (Level 0: growth control rate is less than 5%)
same,Stellaria media (activity level),Stellaria media,5 (Level 5: growth control rate is above 85%)
same,Amaranthus retroflexus (activity level),Amaranthus retroflexus,5 (Level 5: growth control rate is above 85%)
same,Echinochloa crusgali (activity level),Echinochloa crusgali; [4],5 (Level 5: growth control rate is above 85%)
same,Monochoria vaginalis (activity level),Monochoria vaginalis; [4],5 (Level 5: growth control rate is above 85%)
same,Scirpus juncoides (activity level),Scirpus juncoides,5 (Level 5: growth control rate is above 85%)
same,Selection index between rice and Echinochloa crusgali,[3],>5
same,Rice (safety level),"Rice; Table 7, dose 125 g a.i./ha, 21 days after treatment",0 (Level 0: growth control rate is less than 5%)
